Measurements reported in US20230382863A1, “MEK INHIBITORS AND USES THEREOF” (Ikena Oncology, Inc., priority 2022, published 2023).
Each block holds one compound with its values, some of them ahead of it.

Tests used:
uMEK/BRAF = uMEK/BRAF (Homo sapiens (Human), UniProt Q02750); assay: MEK-RAF Binding Assay (uMEK/BRAF HTRF)
pERK HCT-116 (G13D) = pERK HCT-116 (G13D) ICW (4 hour); format: cell-based; details: Homo sapiens, read-out: pERK HCT-116 (G13D) ICW (4 hour): Average IC50 (nM)
[1] = test system: Phosphorylation of MEK1/2 in AsPC1 cells; assay: 4 hour pMEK1/2 MSD Assay; format: cell-based; details: Homo sapiens; AsPC1, 4 hours; read-out: pMEK IC50
Method: AsPC1 cells were seeded at 10,000 cells/well overnight in 96-well plates, then treated with a 12-point dose response of compounds (Starting dose of 1000 nM and 3-fold dilution) for 4 hours. AsPC1 cells are a K-Ras mutant (G12D) pancreatic cancer cell line. Phosphorylation of MEK1/2 on residues Ser217 and Ser221 were detected using a MesoScale Discovery (MSD) assay (MSD Cat #K15129D-2). MEK1/2 phosphorylation levels were normalized to total MEK1/2 protein detected in each well on the same MSD plate. IC50 values were determined by fitting a variable slope, four parameters curve to the compound concentration to normalized Phospho-MEK1/2 relationship.

[2] = Cassette pharmacokinetics studies in mice; format: in vivo; details: male, Balb/c, plasma, Mouse
Procedure, shortened: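 Male Balb/c mice (3 per route) received cassette doses in 5% DMSO/95% PEG400 at 2 mg/kg IV (1 mg/kg where IV*) or 5 mg/kg PO. Plasma sampled to 24 h, acetonitrile-precipitated with internal standard, quantified by HPLC/MS/MS against 0.5-1,000 ng/mL standards.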

Pharmacokinetics in rat = format: in vivo; details: plasma, IV, 0.2 mg/kg
MEK1-CRAF complex = MEK1-CRAF complex (Homo sapiens (Human), UniProt Q02750); assay: Stabilization of MEK1-CRAF complex assay (AlphaLISA); format: binding
Method: MEK1 was diluted to 4 nM, and nickel chelate donor beads and glutathione acceptor beads were diluted to 80 μg/mL. CRAF was diluted to a top concentration of 160 nM, which was subsequently diluted to 80, 40, 20, 10, 5, 2.5, 1.25, and 0.625 nM through 1:2 serial dilution.
Exemplary MEK inhibitor compounds (0, 0.01, 0.1, or 1 μM) were added to a 384-AlphaPlate (PerkinElmer, 6008350) by a digital liquid dispenser (Tecan D300e) based on a total volume of 20 μL reaction mixture.
5 μL 4×MEK1 stock solution was added to wells A1-P20 by multichannel pipettes. The plate was sealed with clear olefin sealing tape (Thermo Scientific, 232701), centrifuged at 1000 rpm for 1 minute, and incubated at room temperature for 30 minutes.
5 μL 4×CRAF stock solution at different concentrations or 5 μL or 10 μL AlphaLISA buffer was added by multichannel pipettes. The plate was sealed, centrifuged at 1000 rpm for 1 minute, and incubated at room temperature for 60 minutes.
5 μL 4×glutathione acceptor beads were first added to all wells by multichannel pipettes. The ambient light was subsequently adjusted to <100 lux (light meter) before adding 5 μL 4×nickel chelate donor beads to the same wells. From this step on, the plate was covered with a black plate cover, centrifuged at 1000 rpm for 1 minute, and incubated at room temperature for 60 minutes.
Data were collected on a PHERAStar FSX (BMG LABTECH) using the AlphaLISA module (excitation: 680 nm, emission: 615 nm), with a gain of 3600. The excitation time was 0.30 seconds, and data collection started after a 0.04-second delay for a total integration time of 0.60 seconds.
The individual AlphaLISA counts of wells with exemplary MEK inhibitor compound were divided by the average AlphaLISA counts of wells without compound to obtain AlphaLISA signal/background ratio (S/B). The dissociation constant (KD) of MEK1-CRAF was calculated using nonlinear regression curve fit in GraphPad PRISM® 9.0 software.

cancer cell lines = assay: In vitro MEK inhibitor drug combinations (Cell Titer Glo, Loewe synergy); format: cell-based; details: combination with I-2, 5 days
Method: Cell viability was determined by Cell Titer Glo assay. […] A normalized Loewe sum of synergy score of >10 was considered synergistic, <10, but >−10 additive, and <−10 antagonistic.

[3] = AsPC-1, HPAF, MiaPACA2, NCI-H1373, NCI-H2122, PANC03276

Sequence of MEK1-CRAF complex (Q02750 whole entry, looked up): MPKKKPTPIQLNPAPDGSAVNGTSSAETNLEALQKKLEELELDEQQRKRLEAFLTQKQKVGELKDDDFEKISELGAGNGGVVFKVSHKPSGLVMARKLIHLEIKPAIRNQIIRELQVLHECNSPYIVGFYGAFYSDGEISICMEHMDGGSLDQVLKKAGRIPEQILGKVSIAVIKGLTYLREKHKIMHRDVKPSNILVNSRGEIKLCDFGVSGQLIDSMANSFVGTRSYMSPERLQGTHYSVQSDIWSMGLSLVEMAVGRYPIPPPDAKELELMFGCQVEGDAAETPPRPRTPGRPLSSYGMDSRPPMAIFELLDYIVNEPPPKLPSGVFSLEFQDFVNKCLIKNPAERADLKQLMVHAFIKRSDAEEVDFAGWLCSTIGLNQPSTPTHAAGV
Sequence of MEK1-CRAF complex (P04049 whole entry partner, looked up): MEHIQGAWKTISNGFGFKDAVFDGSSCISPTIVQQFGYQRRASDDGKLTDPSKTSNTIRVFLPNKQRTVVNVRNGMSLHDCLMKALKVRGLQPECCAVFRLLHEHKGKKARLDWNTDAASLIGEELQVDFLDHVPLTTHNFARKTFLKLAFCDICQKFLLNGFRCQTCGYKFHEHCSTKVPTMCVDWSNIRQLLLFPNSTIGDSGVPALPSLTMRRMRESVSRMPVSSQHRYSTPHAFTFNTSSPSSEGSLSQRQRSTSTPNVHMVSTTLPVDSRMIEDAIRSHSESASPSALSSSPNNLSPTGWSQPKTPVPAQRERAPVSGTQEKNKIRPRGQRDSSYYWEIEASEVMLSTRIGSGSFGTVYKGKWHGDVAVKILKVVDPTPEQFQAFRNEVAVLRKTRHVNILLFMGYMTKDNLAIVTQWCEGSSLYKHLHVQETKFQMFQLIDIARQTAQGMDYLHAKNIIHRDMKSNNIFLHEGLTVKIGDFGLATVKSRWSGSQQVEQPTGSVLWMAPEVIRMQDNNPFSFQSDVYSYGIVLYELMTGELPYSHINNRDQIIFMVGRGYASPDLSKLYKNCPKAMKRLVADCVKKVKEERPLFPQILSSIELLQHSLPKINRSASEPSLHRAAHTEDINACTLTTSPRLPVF
Sequence of uMEK/BRAF (Q02750 whole entry): as the sequence (Q02750 whole entry, looked up) above

- IC50 (uMEK/BRAF): < 0.1 µM
- IC50 (pERK HCT-116 (G13D)): < 100 nM
- IC50 [1]: < 0.1 µM
- AUC(0-inf) ([2]; IV, 2 mg/kg): 455 ng·h/mL
- AUC(0-t) ([2]; IV, 2 mg/kg): 452 ng·h/mL
- clearance ([2]; IV, 2 mg/kg): 74.9 mL/min/kg
- half-life ([2]; IV, 2 mg/kg): 1.67 h
- Vd ([2]; IV, 2 mg/kg, read-out: Vdss): 3.2 L/kg
- AUC(0-inf) ([2]; PO, 5 mg/kg): 635 ng·h/mL
- AUC(0-t) ([2]; PO, 5 mg/kg): 614 ng·h/mL
- Cmax ([2]; PO, 5 mg/kg): 432 ng/mL
- Tmax ([2]; PO, 5 mg/kg): 0.4 h
- half-life ([2]; PO, 5 mg/kg): 11.6 h
- AUC(0-inf) (Pharmacokinetics in rat): 107 ng·h/mL
- AUC(0-t) (Pharmacokinetics in rat): 100 ng·h/mL
- clearance (Pharmacokinetics in rat): 31.9 mL/min/kg
- half-life (Pharmacokinetics in rat): 2.4 h
- Vd (Pharmacokinetics in rat; read-out: Vdss): 4.2 L/kg
- KD Ratio (mean), compound to DMSO (MEK1-CRAF complex; compound 0.01 μM): 0.80
- KD Ratio (mean), compound to DMSO (MEK1-CRAF complex; compound 0.1 μM): 0.55
- KD Ratio (mean), compound to DMSO (MEK1-CRAF complex; compound 1 μM): 0.42
Compound: CNS(=O)(=O)Nc1cccc(Oc2c(C(=O)NC3CC3)c(Nc3ccc(I)cc3F)n(C)c(=O)c2C)c1OC [Compound I-1]

Compound: C=CC(=O)N1CCN(c2nc(=O)n(-c3c(C)ccnc3C(C)C)c3nc(-c4c(O)cccc4F)c(F)cc23)[C@@H](C)C1 [Sotorasib]
- Loewe Synergy Score > 10 (cancer cell lines; NCI-H358, NCI-H1373, NCI-H2122, MiaPACA2, NCI-H2030): 4/5 cell lines

Compound: Cc1nc(N2CCC3(CC2)CO[C@@H](C)[C@H]3N)c(CO)nc1-c1cccc(Cl)c1Cl [RMC-4550]
- Loewe Synergy Score > 10 (cancer cell lines; [3]): 3/6 cell lines

Compound: Cc1ccc(NC(=O)c2ccnc(C(F)(F)F)c2)cc1-c1cc(OCCO)nc(N2CCOCC2)c1 [LXH254]
- Loewe Synergy Score > 10 (cancer cell lines; [3]): 6/6 cell lines

Compound: CO[C@H]1C[C@@H]2CC[C@@H](C)[C@@](O)(O2)C(=O)C(=O)N2CCCC[C@H]2C(=O)O[C@H]([C@H](C)C[C@@H]2CC[C@@H](OCCO)[C@H](OC)C2)CC(=O)[C@H](C)/C=C(\C)[C@@H](O)[C@@H](OC)C(=O)[C@H](C)C[C@H](C)/C=C/C=C/C=C/1C [Everolimus]
- Loewe Synergy Score > 10 (cancer cell lines; [3]): 5/6 cell lines
